Results from patent US7163946B2 (Ligand Pharmaceuticals Incorporated, priority 2002, dated 2007).

Key:
[1] = target: T1, human mineralocorticoid receptor (hMR) (Homo sapiens, UniProt P08235); assay: hMR cotransfection assay (potency ratio to hPR); assay type: cell-based; settings: receptor-selectivity potency ratio, cotransfection assays
T1 sequence (P08235 1-984): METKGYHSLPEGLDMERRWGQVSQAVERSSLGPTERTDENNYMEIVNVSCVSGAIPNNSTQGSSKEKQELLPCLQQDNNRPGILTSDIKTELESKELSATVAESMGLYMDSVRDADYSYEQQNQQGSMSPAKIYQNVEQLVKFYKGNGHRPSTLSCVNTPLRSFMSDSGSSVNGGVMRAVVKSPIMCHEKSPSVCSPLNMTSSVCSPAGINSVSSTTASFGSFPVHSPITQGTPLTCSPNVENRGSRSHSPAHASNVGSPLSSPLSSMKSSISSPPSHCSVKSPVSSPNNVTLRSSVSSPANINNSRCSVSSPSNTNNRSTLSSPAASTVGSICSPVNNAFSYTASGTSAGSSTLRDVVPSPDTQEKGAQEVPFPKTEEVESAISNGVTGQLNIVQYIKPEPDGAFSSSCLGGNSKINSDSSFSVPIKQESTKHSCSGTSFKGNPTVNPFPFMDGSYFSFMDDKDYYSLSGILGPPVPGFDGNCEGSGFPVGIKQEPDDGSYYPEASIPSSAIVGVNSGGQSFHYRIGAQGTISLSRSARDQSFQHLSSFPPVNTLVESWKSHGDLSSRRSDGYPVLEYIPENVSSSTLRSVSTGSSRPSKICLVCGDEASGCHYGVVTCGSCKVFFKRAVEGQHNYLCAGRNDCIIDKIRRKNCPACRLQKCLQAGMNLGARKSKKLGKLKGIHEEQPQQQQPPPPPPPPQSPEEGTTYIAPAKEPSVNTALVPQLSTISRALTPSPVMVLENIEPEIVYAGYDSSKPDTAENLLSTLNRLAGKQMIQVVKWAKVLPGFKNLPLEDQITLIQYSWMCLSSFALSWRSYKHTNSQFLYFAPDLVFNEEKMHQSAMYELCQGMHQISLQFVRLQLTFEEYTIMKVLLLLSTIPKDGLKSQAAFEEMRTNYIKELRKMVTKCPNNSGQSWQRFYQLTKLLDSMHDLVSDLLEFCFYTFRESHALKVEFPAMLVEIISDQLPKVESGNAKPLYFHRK

hPR = target: T2, hPR (Homo sapiens, UniProt P06401); assay: T47D alkaline phosphatase assay, agonist mode; assay type: cell-based; settings: T47D human breast cancer cells; for Emax: T47D, read-out: hPR Agonist T47D cells Eff. (%)
T2 sequence (P06401 679-933 limits assumed): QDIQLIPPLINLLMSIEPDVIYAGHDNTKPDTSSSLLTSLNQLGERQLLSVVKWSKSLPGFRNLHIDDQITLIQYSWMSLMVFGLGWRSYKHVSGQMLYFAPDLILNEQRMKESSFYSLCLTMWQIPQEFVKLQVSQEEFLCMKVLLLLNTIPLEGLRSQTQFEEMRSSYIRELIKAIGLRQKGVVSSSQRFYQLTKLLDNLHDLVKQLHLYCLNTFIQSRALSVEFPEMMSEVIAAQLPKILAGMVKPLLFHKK

hPR-A = target: T3, hPR-A (Homo sapiens, UniProt P06401); assay: Receptor competitive binding assay; settings: read-out: PR binding Ki
T3 sequence (P06401 1-769 isoform P06401-2): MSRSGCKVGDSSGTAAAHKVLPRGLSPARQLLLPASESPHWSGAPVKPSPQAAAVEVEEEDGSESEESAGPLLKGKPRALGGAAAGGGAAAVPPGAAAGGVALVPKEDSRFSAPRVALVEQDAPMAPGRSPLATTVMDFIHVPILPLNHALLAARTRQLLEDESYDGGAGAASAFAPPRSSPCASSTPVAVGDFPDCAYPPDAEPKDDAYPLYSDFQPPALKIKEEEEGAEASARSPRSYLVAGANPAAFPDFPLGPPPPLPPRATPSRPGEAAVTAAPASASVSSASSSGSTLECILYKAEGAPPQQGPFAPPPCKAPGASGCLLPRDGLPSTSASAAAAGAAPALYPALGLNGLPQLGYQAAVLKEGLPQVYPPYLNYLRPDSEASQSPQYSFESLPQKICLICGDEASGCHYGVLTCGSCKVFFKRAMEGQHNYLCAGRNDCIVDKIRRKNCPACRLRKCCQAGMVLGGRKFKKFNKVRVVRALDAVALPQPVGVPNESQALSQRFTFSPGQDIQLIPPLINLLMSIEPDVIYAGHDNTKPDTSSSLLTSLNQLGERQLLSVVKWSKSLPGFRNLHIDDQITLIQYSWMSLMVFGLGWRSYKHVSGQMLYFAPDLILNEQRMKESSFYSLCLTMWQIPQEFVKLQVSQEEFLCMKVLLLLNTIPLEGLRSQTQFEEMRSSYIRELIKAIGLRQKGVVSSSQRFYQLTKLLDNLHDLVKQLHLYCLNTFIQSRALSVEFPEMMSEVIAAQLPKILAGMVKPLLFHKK

| hMR EC50 or IC50/hPR EC50 [1] | EC50 (hPR) [nM] | Emax (hPR) [%] | Ki (hPR-A) [nM] | SMILES |
| --- | --- | --- | --- | --- |
| >1000 | 35 | 62 | 2.7 | CC1=CC(C)(C)Nc2ccc3c(c21)C(c1ccccc1)Oc1c(F)cc(F)cc1-3 (racemic) [Compound 33, (±)-7,9-difluoro-5-phenyl-1,2-dihydro-2,2,4-trimethyl-5H-chromeno[3,4-f]quinoline] |
| >1000 | 34 | 60 | 2.5 | CC1=CC(C)(C)Nc2ccc3c(c21)C(c1cccc(C)c1)Oc1c(F)cc(F)cc1-3 (racemic) [Compound 34, (±)-7,9-difluoro-5-(3-methylphenyl)-1,2-dihydro-2,2,4-trimethyl-5H-chromeno[3,4-f]quinoline] |
| >1000 | 130 | 50 | 2.2 | CC1=CC(C)(C)Nc2ccc3c(c21)C(c1ccc(Cl)c(C)c1)Oc1c(F)cc(F)cc1-3 (racemic) [Compound 37, (±)-7,9-difluoro-5-(4-chloro-3-methylphenyl)-1,2-dihydro-2,2,4-trimethyl-5H-chromeno[3,4-f]quinoline] |
| 905 | 42 | 54 | 2.8 | CC1=CC(C)(C)Nc2ccc3c(c21)C(c1cccc(Cl)c1)Oc1c(F)cc(F)cc1-3 (racemic) [Compound 41, (±)-7,9-difluoro-5-(3-chlorophenyl)-1,2-dihydro-2,2,4-trimethyl-5H-chromeno[3,4-f]quinoline] |
| >1000 | 20 | 61 | 6.5 | CC1=CC(C)(C)Nc2ccc3c(c21)C(c1cc2ccccc2s1)Oc1c(F)cc(F)cc1-3 (racemic) [Compound 63, (±)-7,9-difluoro-5-(benzo[b]thien-2-yl)-1,2-dihydro-2,2,4-trimethyl-5H-chromeno[3,4-f]quinoline] |
| >1000 | 4.6 | 58 | 3.5 | CC#CC1Oc2c(F)cc(F)cc2-c2ccc3c(c21)C(C)=CC(C)(C)N3 (racemic) [Compound 74, (±)-7,9-difluoro-5-(1-propynyl)-1,2-dihydro-2,2,4-trimethyl-5H-chromeno[3,4-f]quinoline] |
| >1000 | 33 | 66 | 4.5 | CC1=CC(C)(C)Nc2ccc3c(c21)/C(=C/c1ccsc1)Oc1c(F)cc(F)cc1-3 [Compound 30, 7,9-difluoro-5(Z)-(3-thienylmethylidene)-1,2-dihydro-2,2,4-trimethyl-5H-chromeno[3,4-f]quinoline] |
| >1000 | 14 | 66 | 7.9 | CC1=CC(C)(C)Nc2ccc3c(c21)/C(=C/c1cccs1)Oc1c(F)cc(F)cc1-3 [Compound 31, 7,9-difluoro-5(Z)-(2-thienylmethylidene)-1,2-dihydro-2,2,4-trimethyl-5H-chromeno[3,4-f]quinoline] |

The next lines start with the compound.

| SMILES | hMR EC50 or IC50/hPR EC50 [1] | EC50 (hPR) [nM] | Emax (hPR) [%] | Ki (hPR-A) [nM] |
| --- | --- | --- | --- | --- |
| CC1=CC(C)(C)Nc2ccc3c(c21)/C(=C/c1ccccc1)Oc1c(F)cc(F)cc1-3 [Compound 10, 7,9-difluoro-5(Z)-benzylidene-1,2-dihydro-2,2,4-trimethyl-5H-chromeno[3,4-f]quinoline] | >1000 | 30 | 54 | 6.8 |
| CC1=CC(C)(C)Nc2ccc3c(c21)/C(=C/c1ccncc1)Oc1c(F)cc(F)cc1-3 [Compound 14, 7,9-difluoro-5(Z)-(4-picolylidene)-1,2-dihydro-2,2,4-trimethyl-5H-chromeno[3,4-f]quinoline] | >1000 | 49 | 58 | 6 |
| CC1=CC(C)(C)Nc2ccc3c(c21)/C(=C/c1cccc(F)c1)Oc1c(F)cc(F)cc1-3 [Compound 15, 7,9-difluoro-5(Z)-(3-fluorobenzylidene)-1,2-dihydro-2,2,4-trimethyl-5H-chromeno[3,4-f]quinoline] | >1000 | 19 | 56 | 9.7 |
| CC1=CC(C)(C)Nc2ccc3c(c21)/C(=C/c1cc(F)ccc1F)Oc1c(F)cc(F)cc1-3 [Compound 17, 7,9-difluoro-5(Z)-(2,5-difluorobenzylidene)-1,2-dihydro-2,2,4-trimethyl-5H-chromeno[3,4-f]quinoline] | >1000 | 12 | 62 | 9.5 |
| COc1ccccc1/C=C1\Oc2c(F)cc(F)cc2-c2ccc3c(c21)C(C)=CC(C)(C)N3 [Compound 18, 7,9-difluoro-5(Z)-(2-methoxybenzylidene)-1,2-dihydro-2,2,4-trimethyl-5H-chromeno[3,4-f]quinoline] | >1000 | 17 | 57 | 3.9 |
| CC1=CC(C)(C)Nc2ccc3c(c21)/C(=C/c1cc(F)ccc1C)Oc1c(F)cc(F)cc1-3 [Compound 19, 7,9-difluoro-5(Z)-(2-methyl-5-fluorobenzylidene)-1,2-dihydro-2,2,4-trimethyl-5H-chromeno[3,4-f]quinoline] | >1000 | 8.7 | 65 | 8.5 |
| CC1=CC(C)(C)Nc2ccc3c(c21)/C(=C/c1ccncc1C)Oc1c(F)cc(F)cc1-3 [Compound 20, 7,9-difluoro-5(Z)-(3-methyl-4-picolylidene)-1,2-dihydro-2,2,4-trimethyl-5H-chromeno[3,4-f]quinoline] | >1000 | 6.6 | 63 | 2.9 |
| COc1ccc(F)cc1/C=C1\Oc2c(F)cc(F)cc2-c2ccc3c(c21)C(C)=CC(C)(C)N3 [Compound 26, 7,9-difluoro-5(Z)-(2-methoxy-5-fluorobenzylidene)-1,2-dihydro-2,2,4-trimethyl-5H-chromeno[3,4-f]quinoline] | >1000 | 7.5 | 63 | 9 |
| CC1=CC(C)(C)Nc2ccc3c(c21)/C(=C/Br)Oc1c(F)cc(F)cc1-3 [Compound 29, 7,9-difluoro-5(Z)-bromomethylidene-1,2-dihydro-2,2,4-trimethyl-5H-chromeno[3,4-f]quinoline] | >1000 | 8.7 | 62 | 7 |
